Assay results as given in patent US4684624A (priority 1985, dated 1987).

Experiments:
[1] = tested on: acute focal cerebral ischemia (MCA occlusion); set-up: species or system cat; conditions: in vivo; for lived up to 7 days / mortality, 24-28 hours / mortality, 48-72 hours / mortality, less than 24 hours: ip
[2] = tested on: neurologic deficits secondary to cerebral ischemia; conditions: man; cited from earlier work
[3] = tested on: ischemic neurologic deficit; conditions: cited from earlier work
[4] = tested on: analgesic response; conditions: mice; cited from earlier work

| Compound | effect in prolonging survival [1] | lived up to 7 days [1] | mortality, 24-28 hours [1] | mortality, 48-72 hours [1] | mortality, less than 24 hours [1] | effect on neurologic deficits secondary to cerebral ischemia [2] | survival and neurologic function in several models of stroke ([3]; gerbils (Holaday and D'Amato)) | neurologic function and infarct size after temporary carotid occlusion ([3]; gerbils (Levy et al.)) | neurologic deficits produced by unilateral carotid ligation ([3]; gerbils, intraperitoneal (Hosobuchi et al.)) | analgesic potency [4] |
| --- | --- | --- | --- | --- | --- | --- | --- | --- | --- | --- |
| C=CCN1CC[C@]23c4c5ccc(O)c4O[C@H]2C(=O)CC[C@@]3(O)[C@H]1C5 [Naloxone, 17-allyl-4-5α-epoxy-3,14-dihydroxymorphinan-6-one] | prolonged survival | 31% | 15% | 0% | 54% | can reverse neurologic deficits | no beneficial effect | did not produce improved neurologic function or alter infarct size | can be reversed | – |
| O=C1CC[C@@]2(O)[C@H]3Cc4ccc(O)c5c4[C@@]2(CCN3CC2CC2)[C@H]1O5 [Naltrexone] | prolonged survival | 40% | 10% | 10% | 40% | – | – | – | – | – |
| CN1CC[C@]23c4c5ccc(O)c4O[C@H]2[C@@H](O)C=C[C@H]3[C@H]1C5 [morphine] | – | – | – | – | – | exacerbates them | – | – | – | – |
| Dynorphin | – | – | – | – | – | – | – | – | – | little or no analgesic potency |
